{"source": "patent US10758541B2", "about": "“Formulations of milciclib and therapeutic combinations of the same for use in the treatment of cancer” (Tiziana Life Sciences PLC, priority 2017, dated 2020)", "key": {"[1]": {"test_system": "MHCC97L cells", "assay": "IC50 values by cell proliferation assay (WST-1)", "assay_type": "cell-based", "conditions": "Homo sapiens, individual inhibitor, 72 hours", "description": "(§1) See Shailubhai, K et al. “Atiprimod is an inhibitor of cancer cell proliferation and angiogenesis.” J Exp Ther Oncol. 2004; 4: 267-279; and Choudhari et al. “Deactivation of Akt and STAT3 signaling promotes apoptosis, inhibits proliferation, and enhances the sensitivity of hepatocellular carcinoma cells to an anticancer agent, atiprimod” Molecular Cancer Therapeutics. 2007; 6: 112-121. References are incorporated herein in their entireties.\n(§2) MHCC97H and MHCC97L (highly metastatic hepatocellular carcinoma cell line, derived from humans)\n(§3) Cells (MHCC97H, MHCC97L, and HepG2.2.15) were cultured for 24 hours in 2% FBS and then were trypsinized, resuspended in 2% FBS and seeded in a rat collagen coated 96-well plate at a density of 10,000 cells/100 μl/well, a day before the experiment and cultured at 37° C. in 5% CO2. The cells were treated the next day with milciclib, sorafenib, regorafenib, sunitinib, and lenvatinib, individually or in combination in DMEM/F12+2% FBS+for 72 hours prior to the addition of WST-1 reagent. About 100 μL media was added to control well. After cells had been cultured for 72 hours with different drug concentrations, cells were washed 3 times with sterile 1× Phosphate buffered saline (PBS). To determine cell proliferation by the colorimetric test, 10 μL of WST-1 reagent (Sigma Aldrich, St Louis, Mo.) was added in 100 μL cell culture media and incubated for 2 hours in 5% CO2 at 37° C. At the end of incubation period, the plate was placed on a plate shaker for 1 minute and was monitored using a spectrophotometer at an optical density of 450 nm with a reference wavelength of 600 nm using Tecan F200 and iControl software. IC50 values were determined using GraphPad Prism (GraphPad Software, La Jolla, Calif.). Each experiment was performed in duplicate and repeated 2 times."}, "[2]": {"test_system": "HepG2.2.15 cells", "assay": "IC50 values by cell proliferation assay (WST-1)", "assay_type": "cell-based", "conditions": "Homo sapiens, HepG2.2.15; individual inhibitor, 72 hours, WST-1; read-out: HepG2.2.15 IC50", "description": "as §1\nHepG2.2.15 cells are derived from the human hepatoblastoma cell line HepG2.\nas §3"}, "[3]": {"test_system": "MHCC97H cells", "assay": "IC50 values by cell proliferation assay (WST-1)", "assay_type": "cell-based, human", "conditions": "Homo sapiens, MHCC97H, 72 h, individual inhibitor, 72 hours, WST-1; read-out: MHCC97H IC50", "experimental": "as §2\nas §3, with “After cells had been cultured for 72 hours with different drug concentrations, cells were washed 3 times with sterile 1× Phosphate buffered saline (PBS).” left out"}, "[4]": {"conditions": "phase I, cited from earlier work"}, "[5]": {"test_system": "MHCC97L cells", "assay": "EMT transwell invasion assay", "assay_type": "cell-based, human", "conditions": "agent alone, 10 days, P<0.05", "experimental": "(§4) EMT (Epithelial to Mesenchymal Transition) induction employing kit from R&D systems (Cat # CCM017)\n(§5) For transwell invasion assay HCC cells were seeded in the top chamber in 6 well transwell plates (Sigma-Aldrich, St. Louis, Mo.) at a density of 100,000 cells/500 μL/well in standard culture media containing 100× StemXVivo® EMT Inducing Media Supplement (R&D systems, Minneapolis, Minn.) and was incubated overnight at 37° C. in humidified CO2 incubator. Next day, EMT inducing media with or without the test articles was added and incubation was continued for 10 days with media changes every 3 days. On the 10th day, the number of cells migrated to the lower chamber was determined using Bio-Rad (Hercules, Calif.) automatic cell counter. Values obtained were expressed as a percentage of invasion and the cell counts of control cells were considered 100%.\n(§6) The invasive potential of cancer cells is dependent on losing epithelial characteristics and acquiring a migratory mesenchymal property referred to as Epithelial to Mesenchymal Transition (EMT)."}, "[6]": {"test_system": "MHCC97H cells", "assay": "EMT transwell invasion assay", "assay_type": "cell-based, human", "conditions": "agent alone, 10 days, P<0.05", "experimental": "as §4, §5, §6"}}, "data": [{"smiles": "CNC(=O)c1nn(C)c2c1C(C)(C)Cc1cnc(Nc3ccc(N4CCN(C)CC4)cc3)nc1-2", "note": "[MILCICLIB, N,1,4,4-tetramethyl-8-((4-(4-methylpiperazin-1-yl)phenyl)amino)-4,5-dihydro-1H-pyrazolo[4,3-h]quinazoline-3-carboxamide]", "values": [{"measurement": "IC50", "setting": "[1]", "value": 1000, "unit": "nM"}, {"measurement": "IC50", "setting": "[2]", "value": 1160, "unit": "nM"}, {"measurement": "IC50", "setting": "[3]", "value": 1300, "unit": "nM"}, {"measurement": "tolerability", "setting": "[4]; oral treatment, patients with advanced solid malignancies", "value": "well-tolerated"}, {"measurement": "RP2D", "setting": "[4]; oral", "value": 150, "unit": "mg/day"}, {"measurement": "major toxicity profile", "setting": "[4]; reversible upon treatment suspension", "value": "tremors and gastrointestinal toxicity"}, {"measurement": "cell migration (EMT assay)", "setting": "[5]", "value": "statistically significant inhibition"}, {"measurement": "cell migration (EMT assay)", "setting": "[6]", "value": "statistically significant inhibition"}]}]}
